The record followed here is patent US20240327412A1, “FACTOR XIIA INHIBITORS” (KALVISTA PHARMACEUTICALS LIMITED, priority 2021, published 2024).

As a reminder, the IC50 is the point on the concentration scale where inhibition reaches its midpoint.

This experiment addresses T1, Human Factor XIIa (Homo sapiens, UniProt P00748).
T1 construct: Proteolytic cleavage of FXII to heavy and light chains of FXIIa dramatically increases catalytic activity; purchased Enzyme Research Laboratories
T1 sequence (P00748 373-615 limits assumed): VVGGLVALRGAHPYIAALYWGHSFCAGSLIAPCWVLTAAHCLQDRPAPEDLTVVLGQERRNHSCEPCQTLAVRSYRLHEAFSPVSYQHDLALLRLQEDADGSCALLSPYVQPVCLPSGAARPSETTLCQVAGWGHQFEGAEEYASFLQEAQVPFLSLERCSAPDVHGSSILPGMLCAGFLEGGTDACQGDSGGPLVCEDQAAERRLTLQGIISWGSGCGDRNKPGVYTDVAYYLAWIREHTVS
T1 sequence (P00748 20-372 partner limits assumed): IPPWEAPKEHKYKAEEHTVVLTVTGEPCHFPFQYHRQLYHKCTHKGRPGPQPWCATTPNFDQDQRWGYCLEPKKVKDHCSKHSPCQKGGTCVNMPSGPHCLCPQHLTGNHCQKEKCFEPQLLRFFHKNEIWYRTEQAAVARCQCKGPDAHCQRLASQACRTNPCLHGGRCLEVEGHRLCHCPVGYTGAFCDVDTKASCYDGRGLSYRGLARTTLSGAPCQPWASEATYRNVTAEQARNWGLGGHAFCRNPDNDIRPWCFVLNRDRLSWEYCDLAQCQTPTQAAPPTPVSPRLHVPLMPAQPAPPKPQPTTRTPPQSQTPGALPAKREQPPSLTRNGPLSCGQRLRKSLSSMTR
Briefly: Determination of FXIIa inhibition (fluorogenic substrate H-DPro-Phe-Arg-AFC, IC50 assay). Format: biochemical. The settings on record: substrate at Km concentration, 25° C.; category scale; read-out: Human FXII IC50 (nm). Put shortly:
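Human FXIIa incubated at 25° C. with fluorogenic H-DPro-Phe-Arg-AFC at its Km concentration plus varying compound levels. Linear fluorescence increase over 5 min taken as % activity; IC50 is concentration halving uninhibited activity.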
Turning to `CC(C)c1cc(OCC23COC(CNc4cccc5c(N)nccc45)(C2)C3)cn2ccnc12` [Example 6641, N5-((4-(((8-isopropylimidazo[1,2-a]pyridin-6-yl)oxy)methyl)-2-oxabicyclo[2.1.1]hexan-1-yl)methyl)isoquinoline-1,5-diamine], the IC50 fell in the range of 100 to 300 nM.

With `COc1ccc(CNC(=O)N2CC3(COc4ccn(C)c(=O)c4)CC2(CNc2cccc4c(N)nccc24)C3)cc1` [Example 12062, 1-(((1-aminoisoquinolin-5-yl)amino)methyl)-N-(4-methoxybenzyl)-4-(((1-methyl-2-oxo-1,2-dihydropyridin-4-yl)oxy)methyl)-2-azabicyclo[2.1.1]hexane-2-carboxamide], the IC50 fell in the range of 10 to 100 nM. As for `Cc1cnc2ccc(OCC34COC(CNc5ccccc5C#N)(C3)C4)cn12` [Example 6658, 2-(((4-(((3-methylimidazo[1,2-a]pyridin-6-yl)oxy)methyl)-2-oxabicyclo[2.1.1]hexan-1-yl)methyl)amino)benzonitrile], the figure is 10000 to 40000 nM; as for `Cc1cn2cc(OCC34COC(CNc5cccc6c(N)nccc56)(C3)C4)ccc2n1` [Example 6633, N5-((4-(((2-methylimidazo[1,2-a]pyridin-6-yl)oxy)methyl)-2-oxabicyclo[2.1.1]hexan-1-yl)methyl)isoquinoline-1,5-diamine], 100 to 300 nM; as for `CN1Cc2cc(OCC34CN(C(=O)OCc5ccccc5)C(CNc5cccc6c(N)nccc56)(C3)C4)ccc2C1=O` [Example 12018, benzyl 1-(((1-aminoisoquinolin-5-yl)amino)methyl)-4-(((2-methyl-1-oxoisoindolin-5-yl)oxy)methyl)-2-azabicyclo[2.1.1]hexane-2-carboxylate], 10 to 100 nM. As to `Cn1ccc(OCC23CN(C(=O)OCc4cccnc4)C(CNc4cccc5c(N)nccc45)(C2)C3)cc1=O` [Example 12022, pyridin-3-ylmethyl 1-(((1-aminoisoquinolin-5-yl)amino)methyl)-4-(((1-methyl-2-oxo-1,2-dihydropyridin-4-yl)oxy)methyl)-2-azabicyclo[2.1.1]hexane-2-carboxylate], the IC50 lay in the range of 10 to 100 nM. Take `CC(C)c1cc(OCC23CCOC(CNc4cccc5c(N)nccc45)(C2)C3)ncn1` [Example 10948, N5-((5-(((6-isopropylpyrimidin-4-yl)oxy)methyl)-2-oxabicyclo[3.1.1]heptan-1-yl)methyl)isoquinoline-1,5-diamine]: the IC50 lay in the range of 1000 to 3000 nM. For `Cc1cc(OCC23CCOC(CNc4cccc5c(N)nccc45)(C2)C3)ccn1` [Example 10953, N5-((5-(((2-methylpyridin-4-yl)oxy)methyl)-2-oxabicyclo[3.1.1]heptan-1-yl)methyl)isoquinoline-1,5-diamine], the IC50 fell in the range of 100 to 300 nM. As for `Cn1ccc(OCC23CN(C(=O)OCc4ccccc4)C(CNc4ccnc5[nH]c(Cl)cc45)(C2)C3)cc1=O` [Example 12025, benzyl 1-(((2-chloro-1H-pyrrolo[2,3-b]pyridin-4-yl)amino)methyl)-4-(((1-methyl-2-oxo-1,2-dihydropyridin-4-yl)oxy)methyl)-2-azabicyclo[2.1.1]hexane-2-carboxylate], the figure is 1000 to 3000 nM; as for `Nc1nccc2c(NCC34CC(COc5cc6n(c(=O)c5)CCC6)(CCO3)C4)cccc12` [Example 10972, 7-((1-(((1-aminoisoquinolin-5-yl)amino)methyl)-2-oxabicyclo[3.1.1]heptan-5-yl)methoxy)-2,3-dihydroindolizin-5(1H)-one], 10 to 100 nM; as for `Nc1nccc2c(NCC34CC(Cn5ccnn5)(CO3)C4)cccc12` [Example 6648, N5-((4-((1H-1,2,3-triazol-1-yl)methyl)-2-oxabicyclo[2.1.1]hexan-1-yl)methyl)isoquinoline-1,5-diamine], 10000 to 40000 nM. As for `Nc1nccc2c(NCC34CC(Cn5nccn5)(CO3)C4)cccc12` [Example 6647, N5-((4-((2H-1,2,3-triazol-2-yl)methyl)-2-oxabicyclo[2.1.1]hexan-1-yl)methyl)isoquinoline-1,5-diamine], the figure is 40000 to 100000 nM.

Regarding `Cn1ccc(OCC23CN(C(=O)CCc4ccc5cccnc5c4)C(CNc4cccc5c(N)nccc45)(C2)C3)cc1=O` [Example 12055, 4-((1-(((1-aminoisoquinolin-5-yl)amino)methyl)-2-(3-(quinolin-7-yl)propanoyl)-2-azabicyclo[2.1.1]hexan-4-yl)methoxy)-1-methylpyridin-2(1H)-one], the IC50 was 10 to 100 nM. Regarding `Cn1ccc(OCC23CN(c4nccc(-c5ccccc5)n4)C(CNc4cccc5c(N)nccc45)(C2)C3)cc1=O` [Example 12031, 4-((1-(((1-aminoisoquinolin-5-yl)amino)methyl)-2-(4-phenylpyrimidin-2-yl)-2-azabicyclo[2.1.1]hexan-4-yl)methoxy)-1-methylpyridin-2(1H)-one], the IC50 lay within 100 to 300 nM.

For the compound `Nc1nccc2c(NCC34CC(COc5ccc6c(c5)C(=O)NC6)(CO3)C4)cccc12` [Example 6642, 6-((1-(((1-aminoisoquinolin-5-yl)amino)methyl)-2-oxabicyclo[2.1.1]hexan-4-yl)methoxy)isoindolin-1-one], the IC50 lay in the range of 100 to 300 nM.

Regarding `COc1ccccc1CNC(=O)N1CC2(COc3ccn(C)c(=O)c3)CC1(CNc1cccc3c(N)nccc13)C2` [Example 12067, 1-(((1-aminoisoquinolin-5-yl)amino)methyl)-N-(2-methoxybenzyl)-4-(((1-methyl-2-oxo-1,2-dihydropyridin-4-yl)oxy)methyl)-2-azabicyclo[2.1.1]hexane-2-carboxamide], the IC50 lay in the range of 10 to 100 nM. In the case of `CN1CCc2cc(OCC34CCOC(CNc5cccc6c(N)nccc56)(C3)C4)ccc2C1=O` [Example 10939, 6-((1-(((1-aminoisoquinolin-5-yl)amino)methyl)-2-oxabicyclo[3.1.1]heptan-5-yl)methoxy)-2-methyl-3,4-dihydroisoquinolin-1(2H)-one] it was 300 to 1000 nM. On to `Cn1ccc(OCC23CN(C(=O)CCc4cccc(C#N)c4)C(CNc4cccc5c(N)nccc45)(C2)C3)cc1=O` [Example 12044, 3-(3-(1-(((1-aminoisoquinolin-5-yl)amino)methyl)-4-(((1-methyl-2-oxo-1,2-dihydropyridin-4-yl)oxy)methyl)-2-azabicyclo[2.1.1]hexan-2-yl)-3-oxopropyl)benzonitrile], for which the IC50 was in the range of 10 to 100 nM. In the case of `Nc1nccc2c(NCC34CC(COc5cnccn5)(CCO3)C4)cccc12` [Example 10976, N5-((5-((pyrazin-2-yloxy)methyl)-2-oxabicyclo[3.1.1]heptan-1-yl)methyl)isoquinoline-1,5-diamine], the IC50 lay in the range of 10000 to 40000 nM.

As to `Cc1cnc2ccc(OCC34COC(CNc5ccnc(N)c5)(C3)C4)cn12` [Example 6660, N4-((4-(((3-methylimidazo[1,2-a]pyridin-6-yl)oxy)methyl)-2-oxabicyclo[2.1.1]hexan-1-yl)methyl)pyridine-2,4-diamine], the IC50 fell in the range of 3000 to 10000 nM. As for `CC1(C)OC2(COc3cccc4c(N)nccc34)CC1(COc1ccn3ccnc3c1)C2` [Example 7702, 5-((4-((imidazo[1,2-a]pyridin-7-yloxy)methyl)-3,3-dimethyl-2-oxabicyclo[2.1.1]hexan-1-yl)methoxy)isoquinolin-1-amine], the figure is 300 to 1000 nM; as for `Cn1ccc(OCC23CN(C(=O)OCc4ccccn4)C(CNc4cccc5c(N)nccc45)(C2)C3)cc1=O` [Example 12021, pyridin-2-ylmethyl 1-(((1-aminoisoquinolin-5-yl)amino)methyl)-4-(((1-methyl-2-oxo-1,2-dihydropyridin-4-yl)oxy)methyl)-2-azabicyclo[2.1.1]hexane-2-carboxylate], 10 to 100 nM; as for `c1cc2cc(NCC34CC(COc5ccn6ccnc6c5)(CCO3)C4)ccc2cn1` [Example 10958, N-((5-((imidazo[1,2-a]pyridin-7-yloxy)methyl)-2-oxabicyclo[3.1.1]heptan-1-yl)methyl)isoquinolin-6-amine], 10000 to 40000 nM. Consider `COc1ccc(NC(=O)N2CC3(COc4ccn(C)c(=O)c4)CC2(CNc2cccc4c(N)nccc24)C3)cc1` [Example 12061, 1-(((1-Aminoisoquinolin-5-yl)amino)methyl)-N-(4-methoxyphenyl)-4-(((1-methyl-2-oxo-1,2-dihydropyridin-4-yl)oxy)methyl)-2-azabicyclo[2.1.1]hexane-2-carboxamide], for which the IC50 was in the range of 1 to 10 nM. In the case of `Cn1cc(COC(=O)N2CC3(CNc4cccc5c(N)nccc45)CC2(COc2ccn(C)c(=O)c2)C3)cn1` [Example 13022, (1-methyl-1H-pyrazol-4-yl)methyl 4-(((1-aminoisoquinolin-5-yl)amino)methyl)-1-(((1-methyl-2-oxo-1,2-dihydropyridin-4-yl)oxy)methyl)-2-azabicyclo[2.1.1]hexane-2-carboxylate], the IC50 lay within 10 to 100 nM. As for `COc1ccccc1NC(=O)N1CC2(COc3ccn(C)c(=O)c3)CC1(CNc1cccc3c(N)nccc13)C2` [Example 12059, 1-(((1-aminoisoquinolin-5-yl)amino)methyl)-N-(2-methoxyphenyl)-4-(((1-methyl-2-oxo-1,2-dihydropyridin-4-yl)oxy)methyl)-2-azabicyclo[2.1.1]hexane-2-carboxamide], the figure is 10 to 100 nM.
